# Measurements published in patent US4826962A, “Tetrachlororaffinose and its use in the preparation of sucralose” (Tate & Lyle Public Limited Company, priority 1985, dated 1989).
# Legend:
# [1] = Solubility in solvents pre-saturated with aqueous buffer at 55° C.; format: physicochemical
# [2] = system: Melibiase in the form of pelletised cells of Mortierella vinacea var raffinoseutilizer (ATCC 20034); assay: Hydrolysis of TCR to sucralose by melibiase pellets in aqueous buffer; format: biochemical; settings: for TCR hydrolysed: 55° C., pH 5.0, 1% (w/v) TCR
# Protocol: The tetrachlorogalactoraffinose of Example 1 (20 mg) was placed in a screw-top bottle together with 0.1M-citrate-phosphate buffer (pH 5.0) (2 ml) to give a 1% (w/v) solution. This level of water was maintained during the following incubation period by addition of more water when required.
# Melibiase in the form of pelletised cells of Mortierella vinacea var raffinoseutilizer (ATCC 20034) (supplied by Hokkaido Sugar Co, Japan) was added (10 mg) and the mixture was incubated at 55° C. for up to 100 hours. The degree of hydrolysis was followed periodically by t.l.c. analysis of withdrawn 250 μl aliquots eluted with ethyl acetate:ethanol:water (45:5:1) or by hplc on a Waters Dextropak Cl8 reverse phase column eluted by acetonitrile 20% (v/v) and products measured using a refractive index detector. The result is plotted in FIG. 1. It was found, for example, that about 53% had been hydrolysed after 48 hours and about 70% after 90 hours. The products were separated by chromatography and, in addition to sucralose, the presence of 6-chlorogalactose and TCR was detected. TCR can be used at up to 15% (w/v) in this system.
# [3] = system: α-Galactosidase in the form of pelletized cells of M. vinacea var raffinoseutilizer (ATCC 20034); assay: Hydrolysis of TCR to sucralose in organic media; format: biochemical; settings: for Conversion of TCR into sucralose: 24 hours, 20 mM TCR, 55° C.
# Protocol: The TCR of Example 1 (23 mg) was placed in a 5 ml screw-top vial and 2 ml of an organic solvent which had been pre-saturated with aqueous buffer (sodium acetate, 50 mM, pH 5.0) was added to give a 20 mM (1.15% w/v) solution. α-Galactosidase in the form of pelletized cells of M. vinacea var raffinoseutilizer (ATCC 20034) was added (100 mg) to each vial and the reactions were initiated by adding 1% v/v aqueous buffer, vortexing for 30 seconds, and placing the vial in a water-bath shaker at 55° C. and 100 rpm. Periodically, aliquots were removed and 25 μl were injected into an Hplc system fitted with a reverse phase (Waters Dextropak C18) column, using 20% aqueous acetonitrile as eluant, to measure the sucralose produced and the residual TCR. In the figure the progress of the hydrolysis of TCR into sucralose with time is plotted for aqueous buffer (curve 1) and for three solvents, methyl isobutyl ketone (2), ethyl acetate (3) and n-butanol (4). The hydrolysis reaction in methyl isobutyl ketone and in aqueous buffer were similar. Lower rates and conversions were obtained in ethyl acetate and n-butanol, respectively. In all cases, greater than 50% conversion in 24 hours was observed, with 70% conversions in aqueous buffer and methyl isobutyl ketone.
# The reason that the time-course for TCR hydrolysis in ethyl acetate was lower than that in aqueous buffer at 20 mM TCR was due to the higher Km of TCR in ethyl acetate and not due to a lower catalytic activity. When 50 mM TCR was used, the rates and conversions of TCR hydrolysis in ethyl acetate were similar to those in aqueous buffer.
# [4] = system: α-galactosidase of Absidia griseola; assay: TCR hydrolysis by cell debris of α-galactosidase organisms; format: biochemical
# Protocol: (§1) Organisms reported to have an α-galactosidase activity were obtained from the ATCC. They were grown in 500 ml shake flasks containing 100 ml of a mineral salts medium (Jayasuria, 1955 Journal of General Microbiology 12 419-428) containing 1 g/l yeast extract plus 5 g/l raffinose at 30° C. Cells were collected by centrifugation (5000 rev/min for 10 min) in the late exponential phase of growth, resuspended in 5 times their volume of citrate-phosphate buffer pH 5.0, and maintained at 0° C. in an ice bath and were disrupted by 3×20 second bursts in a MSE sonicator (Dawe Soniprobe Type 1130A) at maximum output. The resulting suspension was centrifuged (17,000 rev/min) for 30 minutes and both debris and supernatant assayed for α-galactosidase activity in units per g. dry weight of cell debris using p-nitrophenyl α-D-galactopyranoside (Sigma). Virtually no enzyme activity was detected in the supernatant. Cultures which were positive were then tested for TCR hydrolysis as in Example 4 and the results given in mg sucralose per g dry weight of cell debris per hour (for 70% conversion).
# [5] = system: α-galactosidase of Aspergillus awamori; assay: as above; format: biochemical; settings: Aspergillus awamori ATCC 44733, for 70% conversion
# Protocol: as §1
# [6] = system: α-galactosidase of Aspergillus niger; assay: as above; format: biochemical; settings: Aspergillus niger ATCC 36220, for 70% conversion
# Protocol: as §1
# [7] = system: α-galactosidase of Circinella muscae; assay: as above; format: biochemical
# Protocol: as §1
# [8] = system: α-galactosidase of Mortierella vinacea; assay: as above; format: biochemical
# Protocol: as §1
# [9] = system: α-galactosidase of Saccharomyces uvarum; assay: as above; format: biochemical; settings: Saccharomyces uvarum ATCC 42367, for 70% conversion
# Protocol: as §1
# [10] = system: α-galactosidase of Talaromyces thermophilus; assay: as above; format: biochemical; settings: Talaromyces thermophilus ATCC 16461, for 70% conversion
# Protocol: as §1
# [11] = Stability of sucralose under the enzyme treatment conditions; format: physicochemical; settings: about 55° C., pH 5.0
# Protocol: In both aqueous and organic systems, the treatment should naturally be at the optimum temperature and pH for the enzyme which, for the M. vinacea melibiase is about 55° C. and pH 4.5-5.5. In water-saturated organic solvents this refers to the pH of the aqueous buffer. At this temperature and at a pH of 5.0, we find that the sucralose produced is not degraded.
# [12] = sweeter than sucrose; cited from earlier work
# [13] = cited from earlier work
# [14] = organic solvent or mixture, ethyl acetate pre-saturated with aqueous buffer, 55° C.
# [15] = organic solvent or mixture, methyl isobutyl ketone pre-saturated with aqueous buffer, 55° C.
# [16] = organic solvent or mixture, n-butanol pre-saturated with aqueous buffer, 55° C.
# [17] = organic solvent or mixture, n-octanol pre-saturated with aqueous buffer, 55° C.
# [18] = organic solvent or mixture, nitrobenzene pre-saturated with aqueous buffer, 55° C.
smiles,measurement,setting,value
"OC1C(CCl)OC(OCC2OC(OC3(CCl)OC(CCl)C(O)C3O)C(O)C(O)C2Cl)C(O)C1O (centres unmarked) [TCR, 4,1',6',6""-tetrachloro-4,1',6',6""-tetradeoxygalactoraffinose]",solubility,[1]; aqueous buffer,150 mg/mL
same,solubility,[1]; [14],> 500 mg/mL
same,solubility,"[1]; organic solvent or mixture, hydrophilic water-immiscible solvents (ethyl acetate, n-butanol, methyl isobutyl ketone)",> 500 mg/mL
same,solubility,"[1]; organic solvent or mixture, hydrophobic water-immiscible solvents (e.g. n-octanol, nitrobenzene, butyronitrile)",< 50 mg/mL
same,solubility,[1]; [15],> 500 mg/mL
same,solubility,[1]; [16],> 500 mg/mL
same,solubility,[1]; [17],50 mg/mL
same,solubility,[1]; [18],< 20 mg/mL
same,solubility,"[1]; water (aqueous buffer), 55° C.",150 mg/mL
same,Rate of reaction on TCR relative to raffinose,[2]; M. vinacea melibiase (Hokkaido Sugar Co.),only a few percent of the rate on raffinose itself
same,TCR hydrolysed,[2]; after 48 hours,about 53%
same,TCR hydrolysed,[2]; after 90 hours,about 70%
same,Kcat,[2]; aqueous solution,52.5 mg per g enzyme per hour
same,Km,"[2]; aqueous solution, read-out: Michaelis constant (Km)",5.8 mM
same,Conversion of TCR into sucralose,[3]; aqueous buffer,70%
same,Conversion of TCR into sucralose,[3]; ethyl acetate,greater than 50%
same,Conversion of TCR into sucralose,[3]; methyl isobutyl ketone,70%
same,Conversion of TCR into sucralose,[3]; n-butanol,greater than 50%
same,TCR hydrolysis in highly water-miscible solvents,"[3]; dioxane, acetone, methanol, THF, even with 30% v/v aqueous buffer",unable to support hydrolysis
same,Kcat,[3]; ethyl acetate,56.3 mg sucralose/g pellets/h
same,Km,[3]; ethyl acetate,16.4 mM
same,TCR Hydrolysis,"[4]; Absidia griseola ATCC 20430, for 70% conversion",0 mg sucralose per g dry weight
same,TCR Hydrolysis,"[4]; Absidia griseola ATCC 20431, for 70% conversion",< 0.2 mg sucralose per g dry weight
same,TCR Hydrolysis,"[4]; Absidia griseola ATCC 22618, for 70% conversion",0 mg sucralose per g dry weight
same,TCR Hydrolysis,[5],0 mg sucralose per g dry weight
same,TCR Hydrolysis,[6],0.49 mg sucralose per g dry weight
same,TCR Hydrolysis,"[7]; Circinella muscae ATCC 16008, for 70% conversion",1.12 mg sucralose per g dry weight
same,TCR Hydrolysis,"[7]; Circinella muscae ATCC 20394, for 70% conversion",< 0.2 mg sucralose per g dry weight
same,TCR Hydrolysis,"[7]; Circinella muscae ATCC 22337, for 70% conversion",0 mg sucralose per g dry weight
same,TCR Hydrolysis,"[8]; Mortierella vinacea ATCC 20034, for 70% conversion",1.09 mg sucralose per g dry weight
same,TCR Hydrolysis,"[8]; Mortierella vinacea ATCC 34195, for 70% conversion",1.33 mg sucralose per g dry weight
same,TCR Hydrolysis,"[8]; Mortierella vinacea ATCC 42425, for 70% conversion",1.06 mg sucralose per g dry weight
same,TCR Hydrolysis,"[8]; Mortierella vinacea Hokkaido (pellets), for 70% conversion",4.3 mg sucralose per g dry weight
same,TCR Hydrolysis,[9],0 mg sucralose per g dry weight
same,TCR Hydrolysis,[10],0 mg sucralose per g dry weight
"OC[C@H]1O[C@H](O[C@]2(CCl)O[C@H](CCl)[C@@H](O)[C@@H]2O)[C@H](O)[C@@H](O)[C@H]1Cl [sucralose, 4,1',6'-trichloro-4,1',6'-trideoxygalactosucrose]",solubility,[1]; [14],57 mg/mL
same,solubility,[1]; [15],60 mg/mL
same,solubility,[1]; [16],> 500 mg/mL
same,solubility,[1]; [17],< 10 mg/mL
same,solubility,[1]; [18],< 10 mg/mL
same,solubility,"[1]; water (aqueous buffer), 55° C.",300 mg/mL
same,Degradation of sucralose produced,[11],not degraded
same,Sweetness relative to sucrose,[12],about 600 X
same,Degradation in vivo,[13],not degraded in vivo
